In data set [1] the test system is Meyerozyma guilliermondii. As to the kind of experiment: Antifungal activity against Meyerozyma guilliermondii assessed as growth inhibition at 50 ug/ml after 24 to 72 hr by broth dilution method. The format is functional, organism-based. On the technique in general: In broth dilution the organism is exposed to a series of concentrations in liquid medium.
Data set [2] deals with Botrytis cinerea. As to the kind of experiment: Antifungal activity against Botryotinia fuckeliana ITEM-966 after 72 hr by broth dilution method. The format is functional. As to conditions: ITEM-966, 72 h.
The next data set has as its system Rhodotorula glutinis. The experiment in a line: Antifungal activity against Rhodotorula glutinis assessed as growth inhibition at 50 ug/ml after 24 to 72 hr by broth dilution method. The format is functional, organism-based.
Data set [3] deals with Botrytis cinerea. As to the kind of experiment: Antifungal activity against Botryotinia fuckeliana ITEM-966 after 48 hr by broth dilution method. As to conditions: ITEM-966, 48 h. The format is functional.
Data set [4] relates to Botrytis cinerea. As to the kind of experiment: Antifungal activity against Botryotinia fuckeliana ITEM-966 after 24 hr by broth dilution method. The format is functional. As to conditions: ITEM-966, 24 h.
Data set [5] can be described thus: Toxicity against Artemia salina (brine shrimp) larvae after 24 hr. The format is organism-based. To be noted: in vivo.
Data set [6] relates to Penicillium brevicompactum. The experiment in a line: Antifungal activity against Penicillium brevicompactum Dierckx ITEM-449 after 72 hr by broth dilution method. The format is functional. To be noted: Dierckx ITEM-449, 72 h.
The test system of data set [7] is Penicillium brevicompactum. The experiment in a line: Antifungal activity against Penicillium brevicompactum Dierckx ITEM-449 after 48 hr by broth dilution method. The format is functional. As to conditions: Dierckx ITEM-449, 48 h.
Data set [8] has as its system Penicillium brevicompactum. As to the kind of experiment: Antifungal activity against Penicillium brevicompactum Dierckx ITEM-449 after 24 hr by broth dilution method. The format is functional. To be noted: Dierckx ITEM-449, 24 h.
The test system of data set [9] is Aspergillus parasiticus. As to the kind of experiment: Antifungal activity against Aspergillus parasiticus Speare ITEM-11 after 24 hr by broth dilution method. The format is functional. To be noted: Speare ITEM-11, 24 h.
For data set [10], the system named is Aspergillus parasiticus. The experiment in a line: Antifungal activity against Aspergillus parasiticus Speare ITEM-11 after 72 hr by broth dilution method. The format is functional. To be noted: Speare ITEM-11, 72 h.
The subject of data set [11] is Aspergillus parasiticus. As to the kind of experiment: Antifungal activity against Aspergillus parasiticus Speare ITEM-11 after 48 hr by broth dilution method. The format is functional. As to conditions: Speare ITEM-11, 48 h.

In brackets after ≈: the same amount, converted by molar mass. Activity calls are given as the source filed them. The rule behind the calls is not given here. A value given as a limit tells only on which side of the number the result lay.

Broadly, the MIC is the least concentration at which growth counts as inhibited. In general, LC50 refers to the concentration lethal to half of the exposed cells or organisms. A low value points to a more lethal substance.

Turning to `CCCCCCC(C)CC(C)CC(CO)CC(C)CCC(O)C(C)(C)c1cc(O)c([C@@H]2O[C@H](CO)C[C@H](O)[C@H]2O)c(=O)o1` (stereo partly specified), the “growth inhibition (GI)” value (in data set [1]; in the data set with Rhodotorula glutinis) was “inactive” throughout. Besides, the MIC against Botrytis cinerea [2], with Botrytis cinerea [3] and against Botrytis cinerea [4] was 50 µg/mL (≈ 81.6 µM) throughout.

For the molecule `CCCCCCC(C)C/C(C)=C\C(CO)CC(C)CCC(O)C(C)(C)c1cc(O)c([C@@H]2O[C@H](CO)C[C@H](O)[C@H]2O)c(=O)o1` (stereo partly specified), the “growth inhibition (GI)” value (in [1]; in the data set on Rhodotorula glutinis) was “inactive” in each case. Further, the MIC with Botrytis cinerea [2], against Botrytis cinerea [3] and with Botrytis cinerea [4] was 50 µg/mL (≈ 81.9 µM) each time.

Take `CCCCCCC(C)C/C(C)=C\C(/C=C(C)/C=C/C(O)C(C)(C)c1cc(OC)c([C@@H]2O[C@H](CO)C[C@H](O)[C@H]2O)c(=O)o1)CO` (stereo partly specified): the “growth inhibition (GI)” value (in data set [1]; in the data set on Rhodotorula glutinis) was “inactive” throughout. Besides, the MIC against Botrytis cinerea [2] is 50 µg/mL (≈ 80.5 µM); in the data set on Botrytis cinerea [3] it was 50 µg/mL (≈ 80.5 µM); in the data set with Botrytis cinerea [4], 25 µg/mL (≈ 40.3 µM).

For `CCCCCCC(C)C/C(C)=C\C(/C=C(C)/C=C/C(OC(C)=O)C(C)(C)c1cc(=O)c([C@@H]2O[C@H](COC(C)=O)C[C@H](OC(C)=O)[C@H]2OC(C)=O)c(OC)o1)COC(C)=O` (stereo partly specified), the “growth inhibition (GI)” value (in data set [1]; in the data set with Rhodotorula glutinis) was “inactive” throughout. The molecule further returned an LC50 at 24 h in data set [5] of 51.9 µM.

With `CCCCCCC(C)C/C(C)=C\C(/C=C(C)/C=C/C(OC(C)=O)C(C)(C)c1cc(OC)c([C@@H]2O[C@H](COC(C)=O)C[C@H](OC(C)=O)[C@H]2OC(C)=O)c(=O)o1)COC(C)=O` (stereo partly specified), the “growth inhibition (GI)” value (in data set [1]; in the data set with Rhodotorula glutinis) was “inactive” each time. The molecule further registered an LC50 at 24 h in data set [5] of 46.1 µM.

In the case of `CCCCCCC(C)C/C(C)=C\C(C)/C=C(C)/C=C/C(OC(C)=O)C(C)(C)c1cc(OC(C)=O)c([C@@H]2O[C@H](COC(C)=O)C[C@H](OC(C)=O)[C@H]2OC(C)=O)c(=O)o1` (stereo partly specified), the “growth inhibition (GI)” value (in data set [1]; with Rhodotorula glutinis) was “inactive” throughout. The same molecule returned an LC50 at 24 h in data set [5] of 39.7 µM.

Turning to `CCCCCCC(C)C/C(C)=C\C(/C=C(C)/C=C/C(OC(C)=O)C(C)(C)c1cc(OC(C)=O)c([C@@H]2O[C@H](COC(C)=O)C[C@H](OC(C)=O)[C@H]2OC(C)=O)c(=O)o1)COC(C)=O` (stereo partly specified), the “growth inhibition (GI)” value (in data set [1]; in the data set on Rhodotorula glutinis) was “inactive” in each case. The molecule further displayed an LC50 at 24 h in data set [5] of 85.6 µM.

For the molecule `CCCCCCC(C)C/C(C)=C\C(/C=C(C)/C=C/C(O)C(C)(C)c1cc(O)c(CCO)c(=O)o1)CO` (stereo unspecified), the “growth inhibition (GI)” value (in data set [1]; in the data set with Rhodotorula glutinis) was “inactive” each time.

Consider `Nc1c(Cl)cc([N+](=O)[O-])cc1Cl` [ALLISAN], for which the MIC is over 25 µg/mL in data set [6]; 25 µg/mL (≈ 121 µM) in data set [7]; 12.5 µg/mL (≈ 60.4 µM) in data set [8]; 6.25 µg/mL (≈ 30.2 µM) against Botrytis cinerea [2]; over 25 µg/mL with Aspergillus parasiticus [9]; 6.25 µg/mL (≈ 30.2 µM) in the data set with Botrytis cinerea [3]. In addition, the MIC was over 25 µg/mL against Aspergillus parasiticus [10], 3.12 µg/mL (≈ 15.1 µM) in the data set on Botrytis cinerea [4] and over 25 µg/mL in the data set on Aspergillus parasiticus [11].

Turning to `CCCCNC(=O)n1c(NC(=O)OC)nc2ccccc21` [BENOMYL], the MIC in data set [6] is over 25 µg/mL; in data set [7], over 25 µg/mL; in data set [8], over 25 µg/mL; against Botrytis cinerea [2] it was 0.19 µg/mL (≈ 0.654 µM); against Aspergillus parasiticus [9], over 25 µg/mL; with Botrytis cinerea [3], 0.19 µg/mL (≈ 0.654 µM). Further, the minimum inhibitory concentration (MIC) with Aspergillus parasiticus [10] is over 25 µg/mL; against Botrytis cinerea [4], 0.19 µg/mL (≈ 0.654 µM); in the data set with Aspergillus parasiticus [11], over 25 µg/mL.

Take `CCCCCCC(C)C/C(C)=C\C(C)/C=C(C)/C=C/C(O)C(C)(C)c1cc(O)c([C@@H]2O[C@H](CO)C[C@H](O)[C@H]2O)c(=O)o1` (stereo partly specified) [DEOXYNEOFUSAPYRONE]: the MIC in data set [6] worked out at 1.56 µg/mL (≈ 2.64 µM); in [7] it was 1.56 µg/mL (≈ 2.64 µM); in data set [8], 0.78 µg/mL (≈ 1.32 µM); in the data set on Botrytis cinerea [2], 1.56 µg/mL (≈ 2.64 µM); in the data set on Aspergillus parasiticus [9], 0.78 µg/mL (≈ 1.32 µM); in the data set with Botrytis cinerea [3], 1.56 µg/mL (≈ 2.64 µM). The MIC in the data set with Aspergillus parasiticus [10], in the data set on Botrytis cinerea [4] and in the data set on Aspergillus parasiticus [11] was 0.78 µg/mL (≈ 1.32 µM) throughout. In addition, the “growth inhibition (GI)” value (in data set [1]; with Rhodotorula glutinis) was “inactive” in each case. In data set [5], this molecule came in with an LC50 at 24 h of 37.1 µM.

Consider `CCCCCCC(C)C/C(C)=C\C(/C=C(C)/C=C/C(O)C(C)(C)c1cc(O)c([C@@H]2O[C@H](CO)C[C@H](O)[C@H]2O)c(=O)o1)CO` (stereo partly specified) [Fusapyrone], for which the MIC amounted to 6.25 µg/mL (≈ 10.3 µM) in data set [6]; 3.12 µg/mL (≈ 5.14 µM) in data set [7]; 0.78 µg/mL (≈ 1.29 µM) in [8]; 6.25 µg/mL (≈ 10.3 µM) against Botrytis cinerea [2]; 6.25 µg/mL (≈ 10.3 µM) with Aspergillus parasiticus [9]; 3.12 µg/mL (≈ 5.14 µM) with Botrytis cinerea [3]. The results for the MIC against Aspergillus parasiticus [10], in the data set on Botrytis cinerea [4] and in the data set on Aspergillus parasiticus [11] were 12.5 µg/mL (≈ 20.6 µM), 1.56 µg/mL (≈ 2.57 µM) and 6.25 µg/mL (≈ 10.3 µM), respectively. The “growth inhibition (GI)” value (in [1]; in the data set on Rhodotorula glutinis) was “inactive” each time. Further, the LC50 at 24 h in data set [5] is over 200 µM.

For the origin of these results see ChEMBL document CHEMBL3044782, “Structure-activity relationships of derivatives of fusapyrone, an antifungal metabolite of Fusarium semitectum” (J Agric Food Chem, 2004).
